Here are results for one compound from PMC7226045, “Ensartinib (X-396) Effectively Modulates Pharmacokinetic Resistance Mediated by ABCB1 and ABCG2 Drug Efflux Transporters and CYP3A4 Biotransformation Enzyme” (Cancers, 2020).

Broadly, the IC50 is the concentration that gives 50% inhibition. A word on the Cmax: it is the maximum level reached in the sampled fluid or tissue.

Series [1] concerns HL60-parent cells. Kind of series: XTT proliferation / drug combination assay, HL60-parent. The format is cell-based, human. A general note: Tetrazolium assays rely on reduction of a dye to a coloured formazan, in cell work by metabolically active cells.
Experimental: Briefly, HL60-par, HL60-ABCB1, HL60-ABCG2, and HL60-ABCC1 cells were seeded at 2 × 10^4 cells/well in 96-well culture plates. Immediately after seeding, dilutions of the tested drugs or drug combinations were added to the cells. The plates were then incubated under standard conditions (37 °C, 5% CO2) for 48 h, after which XTT solution in PBS (1 mg/mL) and phenazine methosulfate (7.50 µg/mL) were added to the cells and the plates were incubated for another 5 h. Finally, the cells’ absorbance was measured at 450 nm using a microplate reader (Infinite M200, Tecan, Salzburg, Austria). This method was used to assess the effect of ABC transporters on sensitivity to ensartinib and in drug combination assays.
The parent MDCKII and HL60 cells and their ABCB1-, ABCG2-, and ABCC1-overexpressing counterparts were seeded at the densities specified above onto 96-well culture plates and cultured for 24 h. The medium was subsequently replaced with serial dilutions of ensartinib alone or with various concentrations of a model MDR-susceptible cytostatic agent (daunorubicin or mitoxantrone) with or without 10 µM ensartinib. After 48 h incubation, the cells’ viability was determined as described above. In addition to performing IC50-shift analyses, the viability measurements were converted to FA (fraction of cells affected) values and the effects of drug combinations were quantified using the Chou-Talalay combination index (CI) method as implemented in CompuSyn 3.0.1 (ComboSyn Inc., Paramus, NJ, USA). The effects of concomitantly administered drugs were classified as synergistic (CI < 0.9), additive (0.9 < CI < 1.1), or antagonistic (CI > 1.1) based on the computed CI values [57].
In series [2] the test system is MDCKII-ABCB1 cells. Kind of series: MTT proliferation / drug combination assay, MDCKII-ABCB1. To be noted: MDCKII-ABCB1. How it is done:
MTT proliferation assay was performed as described previously. Cells were seeded on a 96-well culture plate at densities (in units of cells/well) of 1.3 × 10^4 for MDCKII-par, MDCKII-ABCB1, MDCKII-ABCG2, and MDCKII-ABCC1; 1.2 × 10^4 for A431-par, A431-ABCB1, A431-ABCG2 and A431-ABCC1; 1.2 × 10^4 for NCI-H1299; 2.0 × 10^4 for Caco-2; 5.0 × 10^4 for LS174T; and 6.0 × 10^4 for HepG2-CYP3A4 and HepG2-EV. After seeding, the cells were cultured for 24 h, then the media was removed and the cells were treated with serial dilutions of a drug or drug combination for 48 h. Vehicles containing media and 40% DMSO in media served as 100% and 0% viability controls, respectively. Upon completion of the 48 h period, the cells were washed once with 1× PBS, the media was replaced with an MTT solution in Opti-MEM (1 mg/mL), and the cells were incubated under standard conditions for 60 min. MTT solution was carefully removed and the resulting formazan crystals were immediately solubilized in DMSO. The cells were then shaken gently for 10 min, after which absorbance of their lysate was measured at 570 nm and 690 nm using a microplate reader (Infinite M200, Tecan, Salzburg, Austria); background values obtained at 690 nm were subtracted from the measurements obtained at 570 nm. This method was used to assess the effect of ABC transporters on sensitivity to ensartinib, in drug combination assays, and to identify drug concentrations appropriate for use in induction studies.
Experiments focusing on the modulation of ABC transporter-mediated resistance were performed as described previously. The parent MDCKII and HL60 cells and their ABCB1-, ABCG2-, and ABCC1-overexpressing counterparts were seeded at the densities specified above onto 96-well culture plates and cultured for 24 h. The medium was subsequently replaced with serial dilutions of ensartinib alone or with various concentrations of a model MDR-susceptible cytostatic agent (daunorubicin or mitoxantrone) with or without 10 µM ensartinib. After 48 h incubation, the cells’ viability was determined as described above. In addition to performing IC50-shift analyses, the viability measurements were converted to FA (fraction of cells affected) values and the effects of drug combinations were quantified using the Chou-Talalay combination index (CI) method as implemented in CompuSyn 3.0.1 (ComboSyn Inc., Paramus, NJ, USA). The effects of concomitantly administered drugs were classified as synergistic (CI < 0.9), additive (0.9 < CI < 1.1), or antagonistic (CI > 1.1) based on the computed CI values.

The target of series [3] is T1, ABCG2 (Homo sapiens, UniProt Q9UNQ0).
T1 construct: expressed in transfected cells; host or cells: MDCKII-ABCG2 (from Dr. Alfred Schinkel, The Netherlands Cancer Institute)
T1 sequence (Q9UNQ0 1-655): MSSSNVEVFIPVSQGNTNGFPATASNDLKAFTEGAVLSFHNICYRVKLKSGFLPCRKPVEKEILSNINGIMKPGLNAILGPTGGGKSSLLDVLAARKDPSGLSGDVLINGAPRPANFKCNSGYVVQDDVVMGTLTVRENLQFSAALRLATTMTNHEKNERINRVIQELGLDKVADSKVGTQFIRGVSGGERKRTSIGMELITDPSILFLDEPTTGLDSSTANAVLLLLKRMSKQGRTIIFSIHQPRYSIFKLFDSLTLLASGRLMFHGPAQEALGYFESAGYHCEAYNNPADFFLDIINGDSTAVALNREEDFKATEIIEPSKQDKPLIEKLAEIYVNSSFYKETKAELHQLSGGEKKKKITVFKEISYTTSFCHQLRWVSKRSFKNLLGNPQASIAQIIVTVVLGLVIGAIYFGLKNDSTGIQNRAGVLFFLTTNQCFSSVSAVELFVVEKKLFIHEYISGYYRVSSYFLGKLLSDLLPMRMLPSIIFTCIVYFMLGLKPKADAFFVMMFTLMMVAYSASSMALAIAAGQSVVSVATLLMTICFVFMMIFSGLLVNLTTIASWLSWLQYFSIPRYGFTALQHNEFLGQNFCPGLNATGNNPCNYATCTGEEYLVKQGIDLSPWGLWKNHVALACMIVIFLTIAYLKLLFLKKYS
Kind of series: mitoxantrone accumulation assay (flow cytometry) in MDCKII-ABCG2 cells. The note with it: 1 µM mitoxantrone, 1 h, read-out: IC50, inhibition of ABCG2 (mitoxantrone accumulation). The format is cell-based. The procedure: The flow-cytometric inhibitory assay with daunorubicin and mitoxantrone was performed with minor modifications as described previously. MDCKII-par, MDCKII-ABCB1, MDCKII-ABCG2, and MDCKII-ABCC1 cell lines were seeded at densities of 22.0 × 10^4, 15.0 × 10^4, 25.0 × 10^4, and 22.0 × 10^4 cells/well, respectively, on a 12-well plate and then incubated for 24 h to reach approximately 70–80% confluence. Further steps including cell washing, the preparation of drug/model inhibitor dilutions, and their addition to cells were performed as described above. After the 10 min pre-incubation period, 2 µM daunorubicin (a substrate of ABCB1/ABCC1) or 1 µM mitoxantrone (ABCG2 substrate) were promptly added to all wells other than those containing background samples, then the plate was incubated for 1 h under standard conditions. The plates were subsequently placed on ice, the cells were washed twice with ice-cold 1× PBS, and 10× trypsin without phenol red was added. After complete trypsinization, the cells were vigorously resuspended in ice-cold 1× PBS containing 2% FBS. Samples were then transferred into test-tubes and kept on ice until their fluorescence could be measured using a flow cytometer (BD FACSCanto II, Allschwil, Switzerland). The excitation/emission wavelengths for daunorubicin and mitoxantrone were 490/565 and 640/670 nm, respectively.

Details of series [4]: method as in doi:10.1200/JCO.2018.36.15_suppl.e21122. To be noted: in vivo pharmacokinetic studies in humans (patients); cited from earlier work.

`C[C@@H]1CN(C(=O)c2ccc(NC(=O)c3cc(O[C@H](C)c4c(Cl)ccc(F)c4Cl)c(N)nn3)cc2)C[C@H](C)N1` [ensartinib, Ensartinib]: the “combination effect (Chou-Talalay combination index)” value in series [1] (HL60 parental, 10 µM ensartinib with daunorubicin or mitoxantrone, whole FA range) is reported as “antagonistic or additive”; in series [2] (10 µM ensartinib with daunorubicin), “synergistic (synergistic (CI < 0.9))”. Also, the concentration for half-maximal inhibition (IC50) came out at 31.9 µM in series [1] (Homo sapiens, HL60-parent, 48 h, XTT, read-out: IC50, sensitivity to ensartinib) and 28.3 µM in series [3]. For the same compound, in series [2] (daunorubicin, IC50 single drug / IC50 combined with 10 µM ensartinib), the “RR (reversal ratio)” value turned out to be 11.2. Moreover, in series [4], the Cmax was 1000 nM.
